Laboratory results from US3948967A, “Aryl urea carbonates” (Velsicol Chemical Corporation, priority 1974, dated 1976).

Legend:
Format in all cases: in vivo
[1] = tested on: leaf rust on wheat, Puccinia rubigo-vera; experiment: control of leaf rust on wheat (soil watering); conditions: about 25 cc. soil watering, rated 7 to 10 days after inoculation vs untreated
Method: The fungicidal utility of the compounds of this invention was illustrated by experiments carried out for the control of leaf rust on wheat, Puccinia rubigo-vera. In these experiments wheat plants were grown in soil until they were about 2-21/2 inches tall. The soil in which the plants were growing was then watered with about 25 cc. of a solution of the chemical in water. The plants were then placed in the greenhouse for about five days and inoculated with leaf rust spores by dusting the spores from diseased plants. After 7 to 10 days the growth of the fungus on the plants was measured and rated in comparison with plants inoculated but otherwise untreated.

[2] = tested on: Crabgrass; experiment: post-emergence herbicidal activity, foliage spray; conditions: 8 lb. per acre on foliage, 10 to 15 days, scale 0 = no injury to 10 = death
Source text: (§1) After spraying, the soil containers were placed in the greenhouse and provided with supplementary heat as required and daily or more frequent watering. The plants were maintained under these conditions for a period of from 15 to 21 days, at which time the condition of the plants and the degree of injury to the plants was rated on a scale of from 0 to 10, as follows: 0 = no injury, 1,2 = slight injury, 3,4 = moderate injury, 5,6 = moderately severe injury, 7,8,9 = severe injury and 10 = death.
(§2) In these experiments the compounds to be tested were formulated as aqueous emulsions and sprayed at the rate of 8 lb. per acre on the foliage of California barnyardgrass, crabgrass, dock, downybrome, foxtail, Johnson grass, mustard weed, pigweed and velvetleaf that had attained a prescribed size. After spraying the plants were placed in a greenhouse and watered daily or more frequently. Water was not applied to the foliage of the treated plants. The severity of the injury was determined 10 to 15 days after treatment and was rated on the scale of from 0 to 10 heretofore described.

[3] = tested on: Pigweed; experiment: post-emergence herbicidal activity, foliage spray; conditions: 8 lb. per acre on foliage, 10 to 15 days, scale 0 = no injury to 10 = death
Source text: as §1, §2

[4] = tested on: Johnson grass; experiment: post-emergence herbicidal activity, foliage spray; conditions: 8 lb. per acre on foliage, 10 to 15 days, scale 0 = no injury to 10 = death
Source text: as §1, §2

[5] = tested on: Dock; experiment: post-emergence herbicidal activity, foliage spray; conditions: 8 lb. per acre on foliage, 10 to 15 days, scale 0 = no injury to 10 = death
Source text: as §1, §2

[6] = tested on: Downybrome; experiment: post-emergence herbicidal activity, foliage spray; conditions: 8 lb. per acre on foliage, 10 to 15 days, scale 0 = no injury to 10 = death
Source text: as §1, §2

[7] = tested on: California barnyardgrass; experiment: post-emergence herbicidal activity, foliage spray; conditions: 8 lb. per acre on foliage, 10 to 15 days, scale 0 = no injury to 10 = death
Source text: as §1, §2

[8] = tested on: Foxtail; experiment: post-emergence herbicidal activity, foliage spray; conditions: 8 lb. per acre on foliage, 10 to 15 days, scale 0 = no injury to 10 = death
Source text: as §1, §2

[9] = tested on: Velvetleaf; experiment: post-emergence herbicidal activity, foliage spray; conditions: 8 lb. per acre on foliage, 10 to 15 days, scale 0 = no injury to 10 = death
Source text: as §1, §2

[10] = tested on: Mustard; experiment: post-emergence herbicidal activity, foliage spray; conditions: 8 lb. per acre on foliage, 10 to 15 days, scale 0 = no injury to 10 = death
Source text: as §1, §2

[11] = tested on: Crabgrass; experiment: pre-emergence herbicidal activity, greenhouse pots; conditions: 8 lb. per acre, 15 to 21 days, scale 0 = no injury to 10 = death
Method: (§3) In these experiments small plastic greenhouse pots filled with dry soil were seeded with California barnyardgrass, crabgrass, dock, downybrome, foxtail, Johnson grass, mustard weed, pigweed and velvetleaf. Twenty-four hours or less after seeding the pots were sprayed with water until the soil was wet and the test compounds formulated as aqueous emulsions of acetone solutions containing emulsifiers were sprayed at the rate of 8 lb. per acre on the surface of the soil.
as §1

[12] = tested on: Pigweed; experiment: pre-emergence herbicidal activity, greenhouse pots; conditions: 8 lb. per acre, 15 to 21 days, scale 0 = no injury to 10 = death
Method: as §3, §1

[13] = tested on: Johnson grass; experiment: pre-emergence herbicidal activity, greenhouse pots; conditions: 8 lb. per acre, 15 to 21 days, scale 0 = no injury to 10 = death
Method: as §3, §1

[14] = tested on: Dock; experiment: pre-emergence herbicidal activity, greenhouse pots; conditions: 8 lb. per acre, 15 to 21 days, scale 0 = no injury to 10 = death
Method: as §3, §1

[15] = tested on: Downybrome; experiment: pre-emergence herbicidal activity, greenhouse pots; conditions: 8 lb. per acre, 15 to 21 days, scale 0 = no injury to 10 = death
Method: as §3, §1

[16] = tested on: California barnyardgrass; experiment: pre-emergence herbicidal activity, greenhouse pots; conditions: 8 lb. per acre, 15 to 21 days, scale 0 = no injury to 10 = death
Method: as §3, §1

[17] = tested on: Foxtail; experiment: pre-emergence herbicidal activity, greenhouse pots; conditions: 8 lb. per acre, 15 to 21 days, scale 0 = no injury to 10 = death
Method: as §3, §1

[18] = tested on: Velvetleaf; experiment: pre-emergence herbicidal activity, greenhouse pots; conditions: 8 lb. per acre, 15 to 21 days, scale 0 = no injury to 10 = death
Method: as §3, §1

[19] = tested on: Mustard; experiment: pre-emergence herbicidal activity, greenhouse pots; conditions: 8 lb. per acre, 15 to 21 days, scale 0 = no injury to 10 = death
Method: as §3, §1

In the case of `CCOC(=O)ON(C(=O)NC)c1ccc(Cl)c(Cl)c1` [Example 2, 1-(3,4-Dichlorophenyl)-1-ethoxycarbonyloxy-3-methylurea], the “% Control” value ([1]; 200 ppm actual compound) is reported as 100%, the “Injury Rating, Post-Emergence” value [2] is reported as 10 and the “Injury Rating, Post-Emergence” value [3] is reported as 10. The “Injury Rating, Post-Emergence” value [4] was 8, the “Injury Rating, Post-Emergence” value [5] was 9 and the “Injury Rating, Post-Emergence” value [6] was 10. The “Injury Rating, Post-Emergence” value [7] was 10, the “Injury Rating, Post-Emergence” value [8] was 10 and the “Injury Rating, Post-Emergence” value [9] was 10. For the same molecule, the “Injury Rating, Post-Emergence” value [10] was 10, the “Injury Rating, Pre-Emergence” value [11] was 10 and the “Injury Rating, Pre-Emergence” value [12] was 10. The “Injury Rating, Pre-Emergence” value [13] was 8, the “Injury Rating, Pre-Emergence” value [14] was 9 and the “Injury Rating, Pre-Emergence” value [15] was 9. For the same molecule, the “Injury Rating, Pre-Emergence” value [16] was 10, the “Injury Rating, Pre-Emergence” value [17] was 10 and the “Injury Rating, Pre-Emergence” value [18] was 10. For the same molecule, the “Injury Rating, Pre-Emergence” value [19] was 10.

In the case of `CNC(=O)N(OC(=O)OC)c1ccc(Cl)c(Cl)c1` [Example 1, 1-(3,4-Dichlorophenyl)-1-methoxycarbonyloxy-3-methylurea], the “% Control” value ([1]; 200 ppm actual compound) is reported as 100%, the “Injury Rating, Post-Emergence” value [2] is reported as 10 and the “Injury Rating, Post-Emergence” value [3] is reported as 10. The “Injury Rating, Post-Emergence” value [4] was 8, the “Injury Rating, Post-Emergence” value [5] was 8 and the “Injury Rating, Post-Emergence” value [6] was 10. The “Injury Rating, Post-Emergence” value [7] was 10, the “Injury Rating, Post-Emergence” value [8] was 10 and the “Injury Rating, Post-Emergence” value [9] was 10. The “Injury Rating, Post-Emergence” value [10] was 10, the “Injury Rating, Pre-Emergence” value [11] was 10 and the “Injury Rating, Pre-Emergence” value [12] was 10. The “Injury Rating, Pre-Emergence” value [13] was 9, the “Injury Rating, Pre-Emergence” value [14] was 9.5 and the “Injury Rating, Pre-Emergence” value [15] was 9. The “Injury Rating, Pre-Emergence” value [16] was 9.5, the “Injury Rating, Pre-Emergence” value [17] was 10 and the “Injury Rating, Pre-Emergence” value [18] was 10. The “Injury Rating, Pre-Emergence” value [19] was 10.

`CCOC(=O)ON(C(=O)NC)c1cc(Cl)ccc1Cl` [Example 3, 1-(2,5-Dichlorophenyl)-1-ethoxycarbonyloxy-3-methylurea] was tested, and the “% Control” value ([1]; 1000 ppm actual compound) was 95%.
